Source: patent publication US20240368150A1 (Hoffmann-La Roche Inc., priority 2021, published 2024)
Where two headings read alike, the source gives them in different places.

What was measured:
primary human T-cells [1] = system: primary human T-cells
primary human T-cells [2] = assay: Proliferation assay after 5 days (CellTiter-Glo, CD3 stimulation; PBS counter screen); type: cell-based; settings: CD3 stimulation; for Emax / Emax proliferation (% activation): 5 days, normalized to reference compound A1 as stimulator control = 100%, DMSO neutral control; for Emax: read-out: Emax proliferation (% activation); for EC50: primary human T-cells, CellTiter-Glo after 5 days, EC50 of fitted sigmoidal curve, read-out: Tcell Proliferation CD3 EC50
Experimental: Compounds are then added (see next section) to medium only plates.
Cells are assessed for proliferation 5 days later by measuring […] using CellTiterGlo (Promega).
After 5 days, for detection of ATP which is directly proportional to the number of cells present per well, the CellTiter-Glo® 2.0 Reagent is used. After visual control for toxicity or precipitations of the tested compounds, the plates are equilibrated to room temperature for 45 minutes. CellTiter-Glo® 2.0 Reagent is equilibrated to room temperature as well. After equilibration, an equal amount of CellTiter-Glo reagent is added to the cells (80 μl/well) with an electronic multichannel pipette. Plates are placed on a rocking platform for 15 minutes at room temperature. After incubation, the bottom of the plates is sealed with backing tape. Luminescence is measured with PHERAstar FSX (interval time 0.5 sec, gain 3000, focal height 15 mm) and exported as CSV file for analysis in Genedata screener.
Compounds which activate unstimulated cells (see IL2 measurements) or compounds which negatively affected viability were flagged.

SMILES | EC50 (primary human T-cells [1]) | Emax (primary human T-cells [2]; Homo sapiens, T-cell, 120 h) | EC50 (primary human T-cells [2]) | Emax proliferation (% activation) (primary human T-cells [2]) | EC50 (primary human T-cells [2]; Homo sapiens, T-cell, 120 h)
CC(Nc1nnc(-c2cc3c(cc2F)S(=O)(=O)C[C@H](N)C(=O)N3Cc2ccc(Cl)cc2)o1)C1CC1(F)F (single isomer, unassigned) [Example 496] | > 10000 nM |  | 1150 nM | 91 % activation | 
N[C@H]1C[S+]([O-])c2cc(F)c(-c3noc(N4CCOCC4)n3)cc2N(Cc2ccc(Cl)cc2)C1=O (single isomer, unassigned; epimer a) [Example 209] | 5810 nM | 92% |  |  | 4100 nM
CC(C)(C)c1nc(-c2cc3c(cc2F)[S+]([O-])C[C@H](N)C(=O)N3Cc2ccc(Cl)cc2)no1 (single isomer, unassigned; epimer a) [Example 340] | 3080 nM | 121% | 1350 nM |  | 
CN1CC(c2nc(-c3cc4c(cc3F)[S+]([O-])C[C@H](N)C(=O)N4Cc3ccc(Cl)cc3)no2)CC(F)(F)C1 (single isomer, unassigned; epimer a) [Example 342] | > 10000 nM |  | 4850 nM | 80 % activation | 
COC(F)(c1nnc(-c2ccc3c(c2)N(Cc2ccc(OC(F)(F)F)cc2)C(=O)[C@@H](N)C[S+]3[O-])o1)C(F)(F)F (single isomer, unassigned; epimer a) [Example 425] | > 10000 nM |  |  | 81 % activation | 1880 nM
N[C@H]1C[S+]([O-])c2ccc(-c3nnc(CC(F)(F)F)o3)cc2N(Cc2ccc(OC(F)(F)F)cc2)C1=O (single isomer, unassigned; epimer a) [Example 427] | > 10000 nM | 26% | > 10000 nM |  | 
N[C@H]1C[S+]([O-])c2cc(F)c(-c3noc(N4CCOC5(CC5)C4)n3)cc2N(Cc2ccc(Cl)cc2)C1=O (single isomer, unassigned; epimer b) [Example 210] | 7170 nM |  | 1550 nM |  | 
CC(C)(C)c1nc(-c2cc3c(cc2F)[S+]([O-])C[C@H](N)C(=O)N3Cc2ccc(Cl)cc2)no1 (single isomer, unassigned; epimer b) [Example 341] | > 10000 nM |  | 3010 nM | 105 % activation | 
CN1CC(c2nc(-c3cc4c(cc3F)[S+]([O-])C[C@H](N)C(=O)N4Cc3ccc(Cl)cc3)no2)CC(F)(F)C1 (single isomer, unassigned; epimer b) [Example 343] | 4830 nM |  | 2620 nM | 97 % activation | 
CCn1cc(-c2cc3c(cc2F)S(=O)(=O)C[C@H](N)C(=O)N3Cc2ccc(Cl)cc2)nn1 [Example 6, (3R)-3-amino-5-[(4-chlorophenyl)methyl]-7-(1-ethyltriazol-4-yl)-8-fluoro-1,1-dioxo-2,3-dihydro-1λ^6,5-benzothiazepin-4-one] | > 20000 nM | 39% |  |  | > 20000 nM
CN1CC[C@@H](n2nnc(-c3cc4c(cc3F)S(=O)(=O)C[C@H](N)C(=O)N4Cc3ccc(Cl)cc3)n2)C1 [Example 10, (3R)-3-amino-5-[(4-chlorophenyl)methyl]-8-fluoro-1,1-dioxo-7-[2-[(3R)-1-methylpyrrolidin-3-yl]tetrazol-5-yl]-2,3-dihydro-1λ^6,5-benzothiazepin-4-one] | 3100 nM | 78% |  |  | 4040 nM
CC(=O)N1CCCC(n2nnc(-c3cc4c(cc3F)S(=O)(=O)C[C@H](N)C(=O)N4Cc3ccc(Cl)cc3)n2)C1 (stereo partly drawn) [Example 13, (3R)-7-[2-(1-acetyl-3-piperidyl)tetrazol-5-yl]-3-amino-5-[(4-chlorophenyl)methyl]-8-fluoro-1,1-dioxo-2,3-dihydro-1λ^6,5-benzothiazepin-4-one] | > 10000 nM | 87% |  |  | 3510 nM
Cn1nnc(-c2cc3c(cc2F)S(=O)(=O)C[C@H](N)C(=O)N3Cc2ccc(Cl)cc2)n1 [Example 16, (3R)-3-amino-5-[(4-chlorophenyl)methyl]-8-fluoro-7-(2-methyltetrazol-5-yl)-1,1-dioxo-2,3-dihydro-1λ^6,5-benzothiazepin-4-one] | 2830 nM | 65% |  |  | 3660 nM
CCc1nc(-c2cc3c(cc2F)S(=O)(=O)C[C@H](N)C(=O)N3Cc2ccc(Cl)cc2)no1 [Example 290, (3R)-3-amino-5-[(4-chlorophenyl)methyl]-7-(5-ethyl-1,2,4-oxadiazol-3-yl)-8-fluoro-1,1-dioxo-2,3-dihydro-1λ^6,5-benzothiazepin-4-one] |  | 139% |  |  | 744 nM
CC(C)(NCC(F)(F)F)c1nc(-c2cc3c(cc2F)S(=O)(=O)C[C@H](N)C(=O)N3Cc2ccc(Cl)cc2)no1 [Example 298, (3R)-3-amino-5-[(4-chlorophenyl)methyl]-8-fluoro-7-[5-[1-methyl-1-(2,2,2-trifluoroethylamino)ethyl]-1,2,4-oxadiazol-3-yl]-1,1-dioxo-2,3-dihydro-1λ^6,5-benzothiazepin-4-one] |  | 162% |  |  | 
COC(=O)N1CCC(C)(c2nc(-c3cc4c(cc3F)S(=O)(=O)C[C@H](N)C(=O)N4Cc3ccc(Cl)cc3)no2)CC1 [Example 307, methyl 4-[3-[(3R)-3-amino-5-[(4-chlorophenyl)methyl]-8-fluoro-1,1,4-trioxo-2,3-dihydro-1λ^6,5-benzothiazepin-7-yl]-1,2,4-oxadiazol-5-yl]-4-methyl-piperidine-1-carboxylate] |  | 143% |  |  | 
CC(C)(C)c1ncn(-c2cc3c(cc2F)S(=O)(=O)C[C@H](N)C(=O)N3Cc2ccc(Cl)cc2)n1 [Example 526, (3R)-3-amino-7-(3-tert-butyl-1,2,4-triazol-1-yl)-5-[(4-chlorophenyl)methyl]-8-fluoro-1,1-dioxo-2,3-dihydro-1λ^6,5-benzothiazepin-4-one] |  | 125% |  |  | 

The remaining molecules from weak to strong by EC50 (primary human T-cells [1]), led by results:

EC50 (primary human T-cells [1]) | SMILES | Emax (primary human T-cells [2]; Homo sapiens, T-cell, 120 h) | EC50 (primary human T-cells [2]) | Emax proliferation (% activation) (primary human T-cells [2]) | EC50 (primary human T-cells [2]; Homo sapiens, T-cell, 120 h)
1580 nM | N[C@H]1C[S+]([O-])c2ccc(-c3nnc(CC(F)(F)F)o3)cc2N(Cc2ccc(OC(F)(F)F)cc2)C1=O (single isomer, unassigned; epimer b) [Example 428] |  | 3280 nM | 38 % activation | 
1320 nM | CN1CC[C@H](n2nnc(-c3cc4c(cc3F)S(=O)(=O)C[C@H](N)C(=O)N4Cc3ccc(Cl)cc3)n2)C1 [Example 9, (3R)-3-amino-5-[(4-chlorophenyl)methyl]-8-fluoro-1,1-dioxo-7-[2-[(3S)-1-methylpyrrolidin-3-yl]tetrazol-5-yl]-2,3-dihydro-1λ^6,5-benzothiazepin-4-one] | 63% |  |  | 4660 nM
1300 nM | CC(=O)N1CCC(n2nnc(-c3cc4c(cc3F)S(=O)(=O)C[C@H](N)C(=O)N4Cc3ccc(Cl)cc3)n2)CC1 [Example 11, (3R)-7-[2-(1-acetyl-4-piperidyl)tetrazol-5-yl]-3-amino-5-[(4-chlorophenyl)methyl]-8-fluoro-1,1-dioxo-2,3-dihydro-1λ^6,5-benzothiazepin-4-one] | 107% |  |  | 1360 nM
1300 nM | COC(F)(c1nc(-c2cc3c(cc2F)[S+]([O-])C[C@H](N)C(=O)N3Cc2ccc(Cl)cc2)no1)C(F)(F)F (single isomer, unassigned; epimer b) [Example 339] |  | 421 nM | 141 % activation | 
1290 nM | COC(F)(c1nnc(-c2ccc3c(c2)N(Cc2ccc(OC(F)(F)F)cc2)C(=O)[C@@H](N)C[S+]3[O-])o1)C(F)(F)F (single isomer, unassigned; epimer b) [Example 426] |  | 1400 nM | 109 % activation | 
991 nM | CC(C)(C)c1cn(-c2cc3c(cc2F)S(=O)(=O)C[C@H](N)C(=O)N3Cc2ccc(Cl)cc2)nn1 [Example 5, (3R)-3-amino-7-(4-tert-butyltriazol-1-yl)-5-[(4-chlorophenyl)methyl]-8-fluoro-1,1-dioxo-2,3-dihydro-1λ^6,5-benzothiazepin-4-one] | 154% |  |  | 2140 nM
917 nM | NC(Cn1nnc(-c2cc3c(cc2F)S(=O)(=O)C[C@H](N)C(=O)N3Cc2ccc(Cl)cc2)n1)C(F)(F)F (stereo partly drawn) [Example 14, (3R)-3-amino-7-[2-(2-amino-3,3,3-trifluoro-propyl)tetrazol-5-yl]-5-[(4-chlorophenyl)methyl]-8-fluoro-1,1-dioxo-2,3-dihydro-1λ^6,5-benzothiazepin-4-one] | 131% |  |  | 810 nM
832 nM | COC(=O)N1CCC(n2nnc(-c3cc4c(cc3F)S(=O)(=O)C[C@H](N)C(=O)N4Cc3ccc(Cl)cc3)n2)C1 (stereo partly drawn) [Example 15, methyl 3-[5-[(3R)-3-amino-5-[(4-chlorophenyl)methyl]-8-fluoro-1,1,4-trioxo-2,3-dihydro-1λ^6,5-benzothiazepin-7-yl]tetrazol-2-yl]pyrrolidine-1-carboxylate] | 109% |  |  | 2440 nM
799 nM | CC(Nc1nnc(-c2cc3c(cc2F)S(=O)(=O)C[C@H](N)C(=O)N3Cc2ccc(Cl)cc2)o1)C1CC1(F)F (single isomer, unassigned) [Example 495] | 93% | 263 nM |  | 
